48 molecules from patent publication US20060264460A1 (Wyeth, priority 2005, published 2006) can be followed below.

T1 sequence (P41279 30-398): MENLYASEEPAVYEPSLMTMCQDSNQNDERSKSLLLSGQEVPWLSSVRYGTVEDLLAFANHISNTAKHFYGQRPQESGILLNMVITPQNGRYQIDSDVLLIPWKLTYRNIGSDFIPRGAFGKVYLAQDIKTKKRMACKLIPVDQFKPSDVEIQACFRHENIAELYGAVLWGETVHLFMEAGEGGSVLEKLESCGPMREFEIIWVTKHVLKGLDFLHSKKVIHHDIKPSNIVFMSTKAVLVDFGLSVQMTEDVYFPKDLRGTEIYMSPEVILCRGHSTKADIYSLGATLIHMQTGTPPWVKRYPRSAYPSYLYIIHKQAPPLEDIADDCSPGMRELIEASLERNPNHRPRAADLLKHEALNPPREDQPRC

One test concerns the target T1, human Cot/Tpl2 kinase (Homo sapiens, UniProt P41279).
T1 construct: human Cot/Tpl2 kinase construct encoding residues 30-398; 6His (N); made in house; host or cells: Sf9 insect cells, baculovirus system (BD Biosciences)
The test can be described thus: Tpl2/Cot kinase assay: GST-MEK1 phosphorylation detected by ELISA (DELFIA Eu). It counts as biochemical. As to conditions: 0.4 nM Tpl2, 35 nM GST-MEK1, 50 uM ATP, 1 h at 30° C. An outline of the steps: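 His-tagged human Tpl2 from Sf9 cells, Ni-affinity and size-exclusion purified (monomer). 0.4 nM Tpl2 with 35 nM GST-MEK1, 50 uM ATP, MOPS pH 7.2, 1% DMSO, 1 h at 30° C; EDTA stop. MEK1 Ser217/221 phosphorylation detected by anti-phospho-MEK1 and Eu-labelled secondary ELISA; IC50 fitted.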
For orientation: ELISA stands for enzyme-linked immunosorbent assay.
`CCc1nc(CNc2cc(Cl)c3ncc(C#N)c(Nc4ccc(F)c(Cl)c4)c3c2)c(C)[nH]1` [Example 190, 8-chloro-4-(3-chloro-4-fluorophenylamino)-6-((2-ethyl-5-methyl-1H-imidazol-4-yl)methylamino)quinoline-3-carbonitrile]: 0.32 µM corresponded to half-maximal inhibition (IC50).
The same measure, in the same setting: as for `CS(=O)(=O)c1ccc(CNc2ccc3ncc(C#N)c(Nc4ccc(F)c(Cl)c4)c3c2)cc1` [Example 50, 4-(3-Chloro-4-fluoro-phenylamino)-6-(4-methanesulfonyl-benzylamino)-quinoline-3-carbonitrile], the figure is 0.2 µM.
Still for that read-out and setting: as for `CC(C)(C)OC(=O)COc1ccc(Br)cc1CNc1ccc2ncc(C#N)c(Nc3ccc(F)c(Cl)c3)c2c1` [Example 42], the figure is 26.8 µM.
The molecule `N#Cc1cnc2c(Cl)cc(NCc3cc4n(n3)CCO4)cc2c1Nc1ccc(F)c(Cl)c1` [Example 188, 8-chloro-4-(3-chloro-4-fluorophenylamino)-6-((2,3-dihydropyrazolo[5,1-b]oxazol-6-yl)methylamino)quinoline-3-carbonitrile] gave an IC50 of 0.059 µM.
Same read-out and setting: as for `N#Cc1cnc2ccc(NCc3cccc([N+](=O)[O-])c3)cc2c1Nc1ccc(F)c(Cl)c1` [Example 6, 4-(3-Chloro-4-fluoro-phenylamino)-6-(3-nitro-benzylamino)-quinoline-3-carbonitrile], the figure is 0.2 µM; as for `Cc1c(CNc2cc(F)c3ncc(C#N)c(Nc4ccc(F)c(Cl)c4)c3c2)ncn1C` [Example 269, 4-[(3-chloro-4-fluorophenyl)amino]-6-{[(1,5-dimethyl-1H-imidazol-4-yl)methyl]amino}-8-fluoroquinoline-3-carbonitrile], 0.016 µM; as for `CCNc1cc(Cl)c2ncc(C#N)c(Nc3ccc(F)c(Cl)c3)c2c1` [Example 199, 8-chloro-4-[(3-chloro-4-fluorophenyl)amino]-6-(ethylamino)quinoline-3-carbonitrile], 1.4 µM.
On to `N#Cc1cnc2c(Br)cc(NCc3nn[nH]c3-c3ccccc3C(F)(F)F)cc2c1Nc1ccc(F)c(Cl)c1` [Example 153, 8-bromo-4-[(3-chloro-4-fluorophenyl)amino]-6-[({5-[2-(trifluoromethyl)phenyl]-1H-1,2,3-triazol-4-yl}methyl)amino]quinoline-3-carbonitrile], for which the IC50 came out at 0.22 µM.
Same read-out and setting: the figure for `CN1CCN(C(=O)Cn2ccnc2CNc2ccc3ncc(C#N)c(Nc4ccc(F)c(Cl)c4)c3c2)CC1` [Example 141, 4-(3-chloro-4-fluorophenylamino)-6-((1-(2-(4-methylpiperazin-1-yl)-2-oxoethyl)-1H-imidazol-2-yl)methylamino)quinoline-3-carbonitrile] is 0.12 µM; for `N#Cc1cnc2c(Br)cc(NCc3csnn3)cc2c1Nc1ccc(F)c(Cl)c1` [Example 302, 8-Bromo-4-(3-chloro-4-fluoro-phenylamino)-6-[([1,2,3]thiadiazol-4-ylmethyl)-amino]-quinoline-3-carbonitrile] it is 0.021 µM.
`CN(C)CCN1CCN(c2cc3ncc(C#N)c(Nc4ccc(F)c(Cl)c4)c3cc2NCc2cnc[nH]2)CC1` [Example 164, 6-((1H-imidazol-5-yl)methylamino)-4-(3-chloro-4-fluorophenylamino)-7-(4-(2-(dimethylamino)ethyl)piperazin-1-yl)quinoline-3-carbonitrile] had an IC50 greater than 40 µM.
The same measure, in the same setting: the figure for `N#Cc1cnc2ccc(NCc3cccc[n+]3[O-])cc2c1NC1CCCCCC1` [Example 253, 4-(cycloheptylamino)-6-{[(1-oxidopyridin-2-yl)methyl]amino}quinoline-3-carbonitrile] is 1.4 µM; for `Cn1cc(Cl)c(CNc2ccc3ncc(C#N)c(Nc4ccc(F)c(Cl)c4)c3c2)n1` [Example 135, 6-((4-chloro-1-methyl-1H-pyrazol-3-yl)methylamino)-4-(3-chloro-4-fluorophenylamino)quinoline-3-carbonitrile] it is greater than 40 µM.
Regarding `N#Cc1cnc2c(Br)cc(NCc3ccoc3)cc2c1Nc1ccc(F)c(Cl)c1` [Example 299, 8-Bromo-4-(3-chloro-4-fluoro-phenylamino)-6-[(furan-3-ylmethyl)-amino]-quinoline-3-carbonitrile], 0.48 µM corresponded to half-maximal inhibition (IC50).
On the same count and under the same terms, the figure for `COc1cc(NCc2cccnc2)cc2c(Nc3ccc(F)c(Cl)c3)c(C#N)cnc12` [Example 28, 4-(3-Chloro-4-fluoro-phenylamino)-8-methoxy-6-[(pyridin-3-ylmethyl)-amino]-quinoline-3-carbonitrile] is 1.1 µM; for `N#Cc1cnc2c(C(F)(F)F)cc(NCc3cccn3S(=O)(=O)c3ccccc3)cc2c1Nc1ccc(F)c(Cl)c1` [Example 237, 4-[(3-chloro-4-fluorophenyl)amino]-6-({[1-(phenylsulfonyl)-1H-pyrrol-2-yl]methyl}amino)-8-(trifluoromethyl)quinoline-3-carbonitrile] it is 24.8 µM.

Still in this test, the particulars now being: Table 2; Tpl2/Cot kinase, GST-MEK1 substrate, 50 uM ATP.
`Fc1ccc(Nc2ncncc2-c2ccc(NCc3cnc[nH]3)cc2)cc1Cl` [Example 527] came in with an IC50 greater than 3 µM.
Take `N#Cc1cnc2c(Cl)cc(NCc3cn(CCCO)nn3)cc2c1Nc1ccc(F)c(Cl)c1` [Example 581]: it took 0.0036 µM to reach half-maximal inhibition (IC50).
Still for that read-out and setting: the figure for `CC(C)(C)OC(=O)N1CCC(Cn2cc(CNc3cc(Br)c4ncc(C#N)c(Nc5ccc(F)c(Cl)c5)c4c3)nn2)CC1` [Example 494] is 0.17 µM; for `N#Cc1cncc(-c2ccccc2NCc2cnc[nH]2)c1Nc1ccc(F)c(Cl)c1` [Example 534] it is greater than 3 µM.
With `CS(=O)(=O)c1ccc(CNc2ccc3ncc(C#N)c(Nc4cccc(Cl)c4)c3c2)cc1` [Example 349], the IC50 was found to be 0.37 µM.
Still for that read-out and setting: the figure for `C[S+]([O-])Cn1cc(CNc2cc(Br)c3ncc(C#N)c(Nc4ccc(F)c(Cl)c4)c3c2)nn1` (stereo not drawn) [Example 532] is 0.12 µM; for `N#Cc1cnc2c(Br)cc(NCc3cnc4cnccn34)cc2c1Nc1ccc(F)c(Cl)c1` [Example 528] it is 0.11 µM.
Still for that read-out and setting: as for `N#Cc1cnc2c(Br)cc(NCc3cn(Cc4ccccn4)cn3)cc2c1Nc1ccc(F)c(Cl)c1` [Example 620], the figure is 0.034 µM; as for `COc1cc(NCc2cccnc2)cc2c(Nc3ccc(C)c(O)c3)c(C#N)cnc12` [Example 386], greater than 40 µM.
The same measure, in the same setting: the figure for `N#Cc1cnc2c(Cl)cc(NCC(O)CO)cc2c1Nc1ccc(F)c(Cl)c1` (stereo not drawn) [Example 631] is 0.59 µM; for `N#Cc1cnc2c(Br)cc(NCc3cn(CC4CCCNC4)nn3)cc2c1Nc1ccc(F)c(Cl)c1` (stereo not drawn) [Example 545] it is 0.033 µM; for `Cn1ccnc1CNc1cc(Cl)c2ncc(C#N)c(Nc3ccc(F)c(Cl)c3)c2c1` [Example 426] it is 0.0032 µM.

The test is the same for the next values; noted with them: Tpl2/Cot kinase, GST-MEK1 substrate, 50 uM ATP.
`CN(C)CCC(c1cccnc1)n1cc(CNc2cc(Cl)c3ncc(C#N)c(Nc4ccc(F)c(Cl)c4)c3c2)nn1` (stereo not drawn) [Example 759] registered an IC50 of 0.036 µM.
As for `N#Cc1cnc2c(Cl)cc(NCc3cn(Cc4cccnc4)cn3)cc2c1Nc1ccc(F)c(Cl)c1` [Example 726], the IC50 was 0.007 µM. Compared with the last molecule, the IC50 is about 5.1-fold lower.
Same read-out and setting: as for `CNC(=O)NCCCn1cc(CNc2cc(Cl)c3ncc(C#N)c(Nc4ccc(F)c(Cl)c4)c3c2)nn1` [Example 909], the figure is 0.001 µM.
Molecule `N#Cc1cnc2c(Cl)cc(NCC(=O)NCc3cccnc3)cc2c1Nc1ccc(F)c(Cl)c1` [Example 771] had an IC50 of 0.2 µM.
Still for that read-out and setting: the figure for `CC1CC(C)CN(CCCn2cc(CNc3cc(Cl)c4ncc(C#N)c(Nc5ccc(F)c(Cl)c5)c4c3)nn2)C1` (stereo not drawn) [Example 800] is 0.15 µM.
On the same count and under the same terms, the figure for `CC(C)N1CCCC1Cn1cc(CNc2cc(Br)c3ncc(C#N)c(Nc4ccc(F)c(Cl)c4)c3c2)nn1` (stereo not drawn) [Example 878] is 0.11 µM; for `CCN1CC(CCn2cc(CNc3cc(Cl)c4ncc(C#N)c(Nc5ccc(F)c(Cl)c5)c4c3)nn2)N(c2ccccc2)C1=S` (stereo not drawn) [Example 792] it is 0.13 µM; for `CN1CCC(CCn2cc(CNc3cc(Br)c4ncc(C#N)c(Nc5ccc(F)c(Cl)c5)c4c3)nn2)CC1` [Example 695] it is 0.044 µM.
On the same count and under the same terms, the figure for `N#Cc1cnc2c(Cl)cc(NCc3cn(Cc4ccncc4)cn3)cc2c1Nc1ccc(F)c(Cl)c1` [Example 787] is 0.0053 µM.
On to `N#Cc1cnc2c(Br)cc(NCc3cncn3CCN3CCOCC3)cc2c1Nc1ccc(F)c(Cl)c1` [Example 668], for which the 50% inhibitory concentration (IC50) was 0.16 µM. Against the preceding molecule, the IC50 is about 30-fold higher.
In the case of `CS(=O)(=O)NCCCn1cc(CN(C=O)c2cc(Cl)c3ncc(C#N)c(Nc4ccc(F)c(Cl)c4)c3c2)nn1` [Example 916], the concentration for half-maximal inhibition (IC50) was determined as 0.83 µM.
Still for that read-out and setting: the figure for `CS(=O)(=O)CCn1cnc(CNc2cc(Br)c3ncc(C#N)c(Nc4ccc(F)c(Cl)c4)c3c2)c1` [Example 702] is 0.043 µM.
On the same count and under the same terms, the figure for `CC(C)(C)OC(=O)N1CCCC1Cn1cc(CNc2cc(Br)c3ncc(C#N)c(Nc4ccc(F)c(Cl)c4)c3c2)nn1` (stereo not drawn) [Example 717] is 0.27 µM.
The molecule `N#Cc1cnc2c(Cl)cc(NCCNC(=O)c3cncnc3)cc2c1Nc1ccc(F)c(Cl)c1` [Example 864] yielded an IC50 of 0.65 µM.
Same read-out and setting: the figure for `N#Cc1cnc2c(Cl)cc(NCCNS(=O)(=O)c3cccnc3)cc2c1Nc1ccc(F)c(Cl)c1` [Example 855] is greater than 3 µM; for `CC(=O)Nc1cc(Br)c2ncc(C#N)c(Nc3ccc(F)c(Cl)c3)c2c1` [Example 660] it is 4.7 µM.

Still in this test, the particulars now being: Tpl2/Cot kinase, GST-MEK1 substrate, 50 uM ATP, 1 h at 30° C.; Table 2.
Regarding `CC(C)N1CCC(O)(c2cncc(CNc3cc(Cl)c4ncc(C#N)c(Nc5ccc(F)c(Cl)c5)c4c3)c2)CC1` [Example 1033], the IC50 was 0.5 µM.
On to `N#Cc1cnc2c(Cl)cc(NCc3cn(CCC4CCN(C5CCCC5)CC4)nn3)cc2c1Nc1ccc(F)c(Cl)c1` [Example 938], for which the IC50 came out at 0.2 µM.
`N#Cc1cnc2c(Cl)cc(NCc3cn(C4CCN(CC(F)(F)F)CC4)nn3)cc2c1Nc1ccc(F)c(Cl)c1` [Example 1014] returned an IC50 of 0.28 µM.
On the same count and under the same terms, as for `N#Cc1cnc2c(Cl)cc(NCc3cn(CCN4CCCCCC4)nn3)cc2c1NC1CCC1` [Example 955], the figure is 0.44 µM.

The IC50 is the concentration needed to halve the response being measured. Read a low IC50 as greater potency in that assay.
